Laboratory results reported in patent US20230011571A1, “SMALL MOLECULE FURIN INHIBITORS FOR TREATING INFECTIOUS DISEASES” (BP Asset V, Inc., priority 2019, published 2023).

Experiments:
Assay type in all cases: cell-based
dengue virus (DENV) = assay: microbe, parasite or virus in culture; conditions: Dengue virus, Vero, 120 h, read-out: Percent viral inhibition DENY
[1] = tested on: Chikungunya virus (CHIKV); assay: microbe, parasite or virus in culture; conditions: Chikungunya virus, Vero, 48 h, read-out: Percent viral inhibition CHKV
Marburg virus (MARV) = assay: organism not typed; conditions: Vero, 72 h, read-out: Percent viral inhibition MARV

Structure (SMILES) | inhibition at 1 µM (dengue virus (DENV)) | inhibition at 1 µM [1] | inhibition at 1 µM (Marburg virus (MARV))
CC(=O)NCC1CCN(Cc2cc(Oc3ccc(N4C[C@H]5CC[C@@H](C4)N5CCC(=O)O)nc3)nc(-c3cc(Cl)cc(Cl)c3)c2)CC1 [Example 185, 3-((1R,5S)-3-(5-((4-((4-(acetamidomethyl)piperidin-1-yl)methyl)-6-(3,5-dichlorophenyl)pyridin-2-yl)oxy)pyridin-2-yl)-3,8-diazabicyclo[3.2.1]octan-8-yl) propanoic acid] | 0% | 22.9% | 64.2%
CC(=O)NCC1CCN(Cc2cc(Oc3ccc(N4CCN(CCC(=O)O)[C@@H](C)C4)nc3)nc(-c3cc(Cl)cc(Cl)c3)c2)CC1 [Example 186] | 53.9% | 19.9% | 30.6%
O=C(O)CC1CCN(Cc2cc(Oc3ccc(N4C[C@@H]5C[C@H]4CN5)nc3)nc(-c3cc(Cl)cc(Cl)c3)c2)CC1 [Example 187, 2-(1-((2-((6-((1S,4S)-2,5-diazabicyclo[2.2.1]heptan-2-yl)pyridin-3-yl)oxy)-6-(3,5-dichlorophenyl)pyridin-4-yl)methyl)piperidin-4-yl) acetic acid] | 84% | 22.4% | 24.1%
CC(=O)NCC1CCN(Cc2cc(Oc3ccc(N4CCCN(CCC(=O)O)CC4)nc3)nc(-c3cc(Cl)cc(Cl)c3)c2)CC1 [Example 190, 3-(4-(5-((4-((4-(acetamidomethyl)piperidin-1-yl)methyl)-6-(3,5-dichlorophenyl)pyridin-2-yl)oxy)pyridin-2-yl)-1,4-diazepan-1-yl)propanoic acid] | 41.8% | 2.11% | 44.8%
CC(=O)NCC1CCN(Cc2cc(Oc3ccc(N4CCN(CCC(=O)O)C(C)(C)C4)nc3)nc(-c3cc(Cl)cc(Cl)c3)c2)CC1 [Example 191] | 71.2% | 14.2% | 50.6%
CC(=O)NCC1CCN(Cc2cc(Oc3ccc(N4CCNC(CO)C4)nc3)nc(-c3cc(Cl)cc(Cl)c3)c2)CC1 (stereo not drawn) [Example 195, N-((1-((2-(3,5-dichlorophenyl)-6-((6-(3-(hydroxymethyl)piperazin-1-yl)pyridin-3-yl)oxy)pyridin-4-yl)methyl)piperidin-4-yl)methyl)acetamide] | 39.4% | 18.1% | 38.2%
CC(=O)NCC1CCN(Cc2cc(Oc3ccc(N4CCC5(CCNC5)C4)nc3)nc(-c3cc(Cl)cc(Cl)c3)c2)CC1 (stereo not drawn) [Example 199, N-((1-((2-((6-(2,7-diazaspiro[4.4]-nonan2-yl)pyridin-3-yl)oxy)-6-(3,5-dichlorophenyl)pyridin-4-yl)methyl)piperidin-4-yl)methyl)acetamide] | 49% | 21.6% | 18.5%
CN1C[C@@H]2C[C@H]1CN2c1ccc(Oc2cc(CN3CCC(CC(=O)O)CC3)cc(-c3cc(Cl)cc(Cl)c3)n2)cn1 [Example 203, 2-(1-((2-(3,5-dichlorophenyl)-6-((6-((1S,4S)-5-methyl-2,5-diazabicyclo[2.2.1]heptan-2-yl)pyridin-3-yl)oxy)pyridin-4-yl)methyl)piperidin-4-yl)acetic acid] | 7.17% | 23.6% | 55.2%
CC(CCN1CCN(c2ncc(Oc3cc(CN4CCC(CC(=O)O)CC4)cc(-c4cc(Cl)cc(Cl)c4)n3)cn2)CC1)S(C)(=O)=O (stereo not drawn) [Example 205, 2-(1-((2-(3,5-dichlorophenyl)-6-((2-(4-(3-(methylsulfonyl)butyl)piperazin-1-yl)pyrimidin-5-yl)oxy)pyridin-4-yl)methyl)piperidin-4-yl)acetic acid] | 57.6% | 23.7% | 77.6%
O=C(O)CC1CCN(Cc2cc(Oc3cnc(N4CCNCC4)nc3)nc(-c3cc(Cl)cc(Cl)c3)c2)CC1 [Example 206, 2-(1-((2-(3,5-dichlorophenyl)-6-((2-(piperazin-1-yl)pyrimidin-5-yl)oxy)pyridin-4-yl)methyl)piperidin-4-yl)acetic acid] | 29.3% | 34.4% | 50.8%
CN1CCN(c2ncc(Oc3cc(CN4CCC(CC(=O)O)CC4)cc(-c4cc(Cl)cc(Cl)c4)n3)cn2)CC1 [Example 207, 2-(1-((2-(3,5-dichlorophenyl)-6-((2-(4-methylpiperazin-1-yl)pyrimidin-5-yl)oxy)pyridin-4-yl)methyl)piperidin-4-yl)acetic acid] | 47.9% | 26.3% | 42.2%
CNC(=O)OCC1CCN(Cc2cc(Oc3cnc(N4CCN(C(C)CCC(=O)O)CC4)nc3)nc(-c3cc(Cl)cc(Cl)c3)c2)CC1 (stereo not drawn) [Example 208, 4-(4-(5-((6-(3,5-dichlorophenyl)-4-((4-(((methylcarbamoyl)oxy)methyl)piperidin-1-yl)methyl)pyridin-2-yl)oxy)pyrimidin-2-yl)piperazin-1-yl)pentanoic acid] | 68.6% | 46.3% | 55.2%
CNC(=O)OCC1CCN(Cc2cc(Oc3cnc(N4CCN(CCCS(C)(=O)=O)CC4)nc3)nc(-c3cc(Cl)cc(Cl)c3)c2)CC1 [Example 210, (1-((2-(3,5-dichlorophenyl)-6-((2-(4-(3-(methylsulfonyl)propyl)piperazin-1-yl)pyrimidin-5-yl)oxy)pyridin-4-yl)methyl)piperidin-4-yl)methylmethylcarbamate] | 21% | 3.75% | 32.6%
CNC(=O)OCC1CCN(Cc2cc(Oc3cnc(N4CCN(C5CC(C(=O)O)C5)CC4)nc3)nc(-c3cc(Cl)cc(Cl)c3)c2)CC1 (stereo not drawn) [Example 211, 3-(4-(5-((6-(3,5-dichlorophenyl)-4-((4-(((methylcarbamoyl)oxy)methyl)piperidin-1-yl)methyl)pyridin-2-yl)oxy)pyrimidin-2-yl)piperazin-1-yl)cyclobutanecarboxylic acid] | 13.3% | 44.7% | 62.5%
CC(CC1CCN(Cc2cc(Oc3ccc(N4CCN(C)CC4)nc3)nc(-c3cc(Cl)cc(Cl)c3)c2)CC1)C(=O)O (stereo not drawn) [Example 213, 3-(1-((2-(3,5-dichlorophenyl)-6-((6-(4-methylpiperazin-1-yl)pyridin-3-yl)oxy)pyridin-4-yl)methyl)piperidin-4-yl)-2-methylpropanoic acid] | 28% | 26.5% | 49.3%
CC(=O)NCC1CCN(Cc2cc(Oc3cnc(N4CCN(C(C)CCC(=O)O)CC4)nc3)nc(-c3cc(Cl)cc(Cl)c3)c2)CC1 (stereo not drawn) [Example 215, 4-(4-(5-((4-((4-(acetamidomethyl)piperidin-1-yl)methyl)-6-(3,5-dichlorophenyl)pyridin-2-yl)oxy)pyrimidin-2-yl)piperazin-1-yl)pentanoic acid] | 24.4% | 32.5% | 56.7%
CC(=O)NCC1CCN(Cc2cc(Oc3cnc(N4CCN(C5CC(C(=O)O)C5)CC4)nc3)nc(-c3cc(Cl)cc(Cl)c3)c2)CC1 (stereo not drawn) [Example 216] | 8.34% | 21.4% | 38.5%
